Values quoted from earlier work in patent EP0271041A2, “Atrial peptide derivatives” (ABBOTT LABORATORIES, priority 1986, dated 1988).
Bridges are numbered along the chain shown (N, C = ends). Where no end group is shown, it is not given here.

Settings: relative to furosemide

alpha-human atrial natriuretic polypeptide (SLRRSSCFGGRMDRIGAQSGLGCNSFRY; disulfide 7-23 (inferred); ends not checked; UniProt P01160 124-151, looked up) [alpha-hANP, polypeptide consisting of 28 amino acids isolated from human atrium]
diuretic action, times as strong as that of furosemide: about 1000 times
